The supplement of paper PMC10307832

Tests used:
Assay in all cases: relative viability (nuclei count vs DMSO), 5 days (fraction); higher = more cells survive
Decitabine + Trametinib = compound: Nc1ncn([C@H]2C[C@H](O)[C@@H](CO)O2)c(=O)n1 [Decitabine] + CC(=O)Nc1cccc(-n2c(=O)n(C3CC3)c(=O)c3c(Nc4ccc(I)cc4F)n(C)c(=O)c(C)c32)c1 [Trametinib] (partner 0.02 µM)
Method in brief: (§1)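 Lung cancer cell lines in 1536-well plates got either a single drug or a fixed anchor-drug dose together with five library-drug doses (not always all listed) in √10 steps, by pin tool, on the day after seeding. Nuclei were counted after 5 days, and relative viability is the treated-to-vehicle ratio of nuclei counts. Values are medians of duplicate plates.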

Decitabine + OSI-027 = compound: Nc1ncn([C@H]2C[C@H](O)[C@@H](CO)O2)c(=O)n1 [Decitabine] + COc1cccc2cc(-c3nc([C@H]4CC[C@H](C(=O)O)CC4)n4ncnc(N)c34)[nH]c12 [OSI-027] (partner 0.5 µM)
Method in brief: as §1

[1] = compound: O=C(C[C@H]1NCCC[C@@H]1O)Cn1cnc2cc(Br)c(Cl)cc2c1=O (racemic) [Halofuginone] + N=C(N)NC(=N)NCCc1ccccc1 [Phenformin] (partner 250 µM)
Method in brief: as §1

Halofuginone + Olaparib = compound: O=C(C[C@H]1NCCC[C@@H]1O)Cn1cnc2cc(Br)c(Cl)cc2c1=O (racemic) [Halofuginone] + O=C(c1cc(Cc2n[nH]c(=O)c3ccccc23)ccc1F)N1CCN(C(=O)C2CC2)CC1 [Olaparib] (partner 8 µM)
Method in brief: as §1

Row | Cell Line | relative viability (Decitabine + Trametinib; first compound 0.04 µM) | relative viability (Decitabine + Trametinib; first compound 0.1265 µM) | relative viability (Decitabine + Trametinib; first compound 0.4 µM) | relative viability (Decitabine + Trametinib; first compound 4 µM) | relative viability (Decitabine + OSI-027; first compound 0.04 µM) | relative viability (Decitabine + OSI-027; first compound 0.1265 µM) | relative viability (Decitabine + OSI-027; first compound 0.4 µM) | relative viability (Decitabine + OSI-027; first compound 1.265 µM) | relative viability (Decitabine + OSI-027; first compound 4 µM) | relative viability ([1]; first compound 0.001 µM) | relative viability ([1]; first compound 0.003162 µM) | relative viability ([1]; first compound 0.01 µM) | relative viability ([1]; first compound 0.03162 µM) | relative viability ([1]; first compound 0.1 µM) | relative viability (Halofuginone + Olaparib; first compound 0.001 µM) | relative viability (Halofuginone + Olaparib; first compound 0.003162 µM) | relative viability (Halofuginone + Olaparib; first compound 0.01 µM) | relative viability (Halofuginone + Olaparib; first compound 0.03162 µM) | relative viability (Halofuginone + Olaparib; first compound 0.1 µM) | relative viability (Decitabine + Trametinib; first compound 1.265 µM)
1 | 201T | 0.739 | 0.721 | 0.773 | 0.708 | 0.72 | 0.681 | 0.62 | 0.464 | 0.403 | 0.459 | 0.472 | 0.442 | 0.457 | 0.348 | 0.851 | 0.906 | 0.853 | 0.827 | 0.83 | –
2 | A549 | – | – | – | – | – | – | – | – | – | 0.186 | 0.215 | 0.148 | 0.163 | 0.109 | 0.48 | 0.413 | 0.378 | 0.288 | 0.262 | –
3 | A-427 | 0.594 | 0.677 | 0.461 | 0.401 | 0.266 | 0.324 | 0.26 | 0.213 | 0.246 | 0.304 | 0.346 | 0.326 | 0.293 | 0.272 | 0.826 | 0.695 | 0.77 | 0.704 | 0.597 | 0.394
4 | ABC-1 | – | – | – | – | 0.554 | 0.387 | 0.492 | 0.424 | 0.37 | 0.27 | 0.223 | 0.24 | 0.234 | 0.209 | 1.06 | 0.793 | 0.617 | 0.847 | 1.09 | –
5 | BEN | 1.1 | 0.947 | 0.772 | 0.622 | 0.297 | 0.315 | 0.273 | 0.295 | 0.289 | 0.263 | 0.263 | 0.26 | 0.285 | 0.237 | 1.06 | 1 | 1.12 | 1.02 | 0.626 | 0.558
6 | CAL-12T | 0.303 | 0.361 | 0.217 | 0.294 | 0.558 | 0.612 | – | 0.305 | 0.268 | 0.582 | 0.592 | 0.555 | 0.603 | 0.509 | 0.785 | 0.717 | 0.709 | 0.754 | 0.548 | 0.265
7 | COR-L23 | 0.374 | 0.452 | 0.321 | 0.23 | 0.415 | 0.401 | 0.335 | 0.227 | 0.158 | 0.489 | 0.431 | 0.482 | 0.415 | 0.303 | 0.349 | 0.348 | 0.346 | 0.292 | 0.171 | 0.219
8 | COR-L 105 | 0.411 | 0.461 | 0.451 | 0.383 | 0.425 | 0.581 | 0.65 | 0.526 | 0.585 | 0.492 | 0.467 | 0.488 | 0.516 | 0.381 | 0.695 | 0.607 | 0.698 | 0.664 | 0.625 | 0.429
9 | Calu-6 | – | – | – | – | – | – | – | – | – | – | – | – | – | – | 0.611 | – | 0.584 | 0.327 | 0.135 | –
10 | ChaGo-K-1 | 0.729 | 0.628 | 0.5 | 0.62 | 0.493 | 0.483 | 0.299 | 0.32 | 0.41 | 0.473 | 0.486 | 0.573 | 0.392 | 0.462 | 0.397 | 0.452 | 0.407 | 0.398 | 0.442 | 0.434
11 | EBC-1 | – | – | – | – | – | – | – | – | – | – | – | – | – | – | 0.752 | 0.706 | 0.532 | 0.303 | 0.169 | –
12 | EKVX | 0.254 | 0.25 | 0.259 | 0.23 | 0.494 | 0.516 | 0.461 | 0.303 | 0.297 | 0.236 | 0.241 | 0.232 | 0.226 | 0.199 | 0.861 | 0.849 | 0.789 | 0.843 | 0.645 | 0.221
13 | EMC-BAC-2 | – | 0.935 | 0.795 | 0.8 | 0.39 | 0.4 | 0.286 | 0.344 | 0.363 | 0.615 | 0.546 | 0.503 | 0.521 | 0.338 | 0.538 | 0.486 | 0.471 | 0.476 | 0.299 | 0.841
14 | EPLC-272H | 0.293 | 0.29 | – | 0.234 | – | 0.288 | 0.11 | 0.248 | 0.186 | 0.314 | 0.267 | 0.311 | 0.312 | 0.286 | 1.09 | 0.775 | 0.583 | 0.764 | 0.445 | 0.251
15 | H3255 | – | 0.686 | 0.506 | 0.46 | – | 0.478 | 0.435 | 0.5 | 0.535 | 0.399 | 0.372 | 0.293 | 0.401 | 0.369 | 0.622 | 0.563 | 0.522 | 0.514 | 0.544 | 0.5
16 | HARA | 0.285 | 0.454 | 0.491 | 0.304 | 0.251 | 0.257 | 0.164 | 0.112 | 0.111 | 0.486 | 0.465 | 0.487 | 0.48 | 0.363 | 1.16 | 0.885 | 0.572 | 0.664 | 0.345 | 0.228
17 | HCC-15 | 0.4 | 0.399 | 0.353 | 0.313 | 0.688 | 0.722 | 0.328 | 0.445 | 0.327 | 0.471 | 0.534 | 0.46 | 0.467 | 0.429 | 0.765 | 0.82 | 0.727 | 0.678 | 0.665 | 0.338
18 | HCC-44 | 1.04 | 0.991 | 0.833 | 0.75 | – | 0.739 | 0.232 | 0.364 | 0.49 | 0.23 | 0.222 | 0.196 | 0.178 | 0.13 | 0.97 | 1.03 | 0.987 | 0.962 | 0.942 | 0.819
19 | HCC-78 | 0.758 | 0.688 | 0.581 | 0.451 | 0.344 | 0.365 | 0.345 | 0.353 | 0.344 | 0.7 | 0.667 | 0.697 | 0.739 | 0.623 | 1.01 | 0.74 | 0.849 | 0.858 | 0.532 | 0.544
